The data set in a line: in vitro. The format is in vitro ADME. As to conditions: human, Caco-2, pH 7.4. The method, then: (Kalamazoo, Mich.). […] Receiver solutions consisted of buffer only. Sequential samples of transported solute are taken at 20 minute intervals in duplicate over 2 hours and the concentration of the transported compound was determined by HPLC-UV/MS. Test sample concentration is determined by LC/MS. Permeability coefficients are calculated for each sampling interval, and averages from the intervals were determined. The apparent permeability coefficient Papp is calculated from the equation where dQ/dt is the rate of permeation of drug across the cells, C0 is the original concentration in donor compartment at time zero, and A is the area of the cell monolayer. Mass balance in the system is ascertained by comparing the sum of transported solute and remaining donor solute to the starting solution concentration. The integrity of the monolayers is verified by monitoring Lucifer yellow permeation and the known P-glycoprotein substrate […] is used as a positive control.

`Clc1ccc([C@]23CNC[C@H]2C3)cc1Cl` [amitifadine, (+)-1-(3,4-dichlorophenyl)-3-azabicyclo[3.1.0]hexane] showed a recovery at 2 h, 10 μM of 62%.
